{"source": "patent US20230193341A1", "about": "“EXPRESSION SYSTEMS, RECOMBINANT CELLS AND USES THEREOF” (Selexis SA, priority 2018, published 2023)", "assay_type_in_all_cases": "cell-based, Chinese hamster", "key": {"ETE (Trastuzumab) cells": {"system": "ETE (Trastuzumab) cells", "test": "Fed-batch culture of ETE (Trastuzumab) CHO cells: IgG production and cell survival", "description": "(§1) (A) ETE clone (Trastuzumab) non-treated (Control) or treated with 10 mM Bezafibrate PPARα ligand after […] of fed-batch culture (+Bezafibrate). Candidate gene expression were quantified at day 6 by RT-qPCR. (B) ETE cells treated with 10 mM Bezafibrate after 1-day fed-batch, and IgG titer measured after 10 days. Data are means±SE from four independent experiments. * P≤0.05 and ** P≤0.02 (t-test; 2 sided; unpaired sample, unequal variance).\nThe percentage of fluorescent cells and the fluorescence intensity of GFP positive cells were determined by flow cytometry analysis using a CyAn ADP flow cytometer (BECKMAN COULTER). Immunoglobulin concentrations in cell culture supernatants were measured by sandwich ELISA. GFP, IgG1Lc, IgG1Hc and MIP transcript accumulation was confirmed by RT-quantitative PCR assays before analyses.\n(§2) Growth and IgG secretion performances in fed-batch culture were performed according to Le Fourn et al., 2013, with the following changes: IgG producing clone stably transfected for the expression of MIPs were seeded at 300′000 cells/ml in 5 mL culture medium in falcon of 50 mL. Viable cell density and IgG titer (g/L) were evaluated after 3, 6, 8, 9, 10 and 13 days."}, "DTE cells": {"system": "DTE cells", "test": "Bezafibrate treatment of DTE CHO cells: target gene induction, production and fitness", "description": "(§3) Antibiotic-selected DTE (Infliximab) cells were stably transfected with mouse PPARα or with an empty vector. Analyses of gene expression, IgG titer and cell viability were performed comparing DTE clone with empty vector cell and PPARα overexpressing cells (PPARα_OE). (A) Gene expression of PPARα targets, PPARα and IgG (qRT-PCR) in none-treated cells or cells treated with Bezafibrate (BEZA). Bezafibrate was added at 10 mM at day 1 of the fed-batch culture. RNA was extracted at day 6 of the fed-batch culture. Infliximab IgG specific productivity (B) and cell viability (C) are illustrated in non-selective or B5-starving media. Cells were cultured in 12 well-plate at a starting amount of 2*105 cell/ml in non-selective or B5 starving medium for 5 days, then transferred in non-selective media. IgG specific productivity (PCD) was then measured over 3 days of culture in non-selective media. Each measurement is the result of three independent cultures. Statistics: * P≤0.05 and ** P≤0.02 (t-test; 1 sided; unpaired sample, unequal variance).\nas §2\n(§4) For quantitative PCR (qPCR) analysis, total RNA was extracted from […] and reverse transcribed into cDNA using the GoScript Reverse transcription System (Promega). Transcripts accumulation was quantified by qPCR using the LightCycler© 480 SYBR Green I Master and the LightCycler 480 II instrument (Roche). Transcript levels were normalized to that of SDHA housekeeping gene."}, "PPAR target genes": {"system": "PPAR target genes", "test": "RT-qPCR of candidate / PPAR target gene expression in ETE (Trastuzumab) clone in fed-batch culture", "settings": "10 mM Bezafibrate added after 3 days of fed-batch, RT-qPCR at day 6 (FIG. 6A)", "description": "as §1, §2, §4"}, "exogenous PPARα": {"system": "exogenous PPARα", "test": "DTE (Infliximab) cells stably overexpressing mouse PPARα (PPARα_OE): gene expression (qRT-PCR) and IgG productivity", "description": "as §3\nFor quantitative PCR (qPCR) analysis, total RNA was extracted from […] and reverse transcribed into cDNA using the GoScript Reverse transcription System (Promega). Transcripts accumulation was quantified by qPCR using the LightCycler© 480 SYBR Green I Master and the LightCycler 480 II instrument (Roche). […]"}}, "data": [{"smiles": "CC(C)(Oc1ccc(CCNC(=O)c2ccc(Cl)cc2)cc1)C(=O)O", "note": "[Bezafibrate, 2-[4-[2-(4-chlorobenzamido)ethyl]phenoxy]-2-methylpropanoic acid]", "values": [{"measurement": "recombinant protein (IgG titer) at the end of the fed-batch", "setting": "ETE (Trastuzumab) cells; ETE cells, 10 mM Bezafibrate added at day 1 of fed-batch, IgG titer after 10 days (FIG. 6B)", "result": "beneficial for recombinant protein"}, {"measurement": "cell division, viability and recombinant protein production", "setting": "ETE (Trastuzumab) cells; ETE cells, increased bezafibrate concentration, data not shown", "result": "doesn't show any beneficial effect"}, {"measurement": "cell survival under starvation stress during the fed-batch process", "setting": "ETE (Trastuzumab) cells; addition at day 3 of the fed-batch, data not shown", "result": "significantly improved cell survival"}, {"measurement": "IgG production", "setting": "ETE (Trastuzumab) cells; addition at day 3 of the fed-batch, normal fed-batch conditions of feeding", "result": "no improvement of IgG production"}, {"measurement": "cell production and fitness", "setting": "DTE cells", "result": "the cell production and fitness weren't improved"}, {"measurement": "induction of PPAR target genes", "setting": "DTE cells", "result": "the same target genes are induced"}, {"measurement": "cell division, viability and recombinant protein production", "setting": "DTE cells; increased bezafibrate concentration, data not shown", "result": "doesn't show any beneficial effect"}, {"measurement": "expression of B5-target Slc22a14", "setting": "PPAR target genes", "result": "activated"}, {"measurement": "expression of Cyp4a14", "setting": "PPAR target genes", "result": "not induced"}, {"measurement": "expression of PPAR target genes HmgCs2, Acot1, DBI1, AscI1 and RXR nuclear receptor", "setting": "PPAR target genes", "result": "induces PPAR target genes"}, {"measurement": "IgG productivity", "setting": "exogenous PPARα; PPARα_OE DTE (Infliximab) cells with bezafibrate (FIG. 7B)", "result": "higher IgG productivity"}, {"measurement": "transcription of PPAR-target genes, RXR nuclear factor and IgG light and heavy chains", "setting": "exogenous PPARα; PPARα_OE DTE (Infliximab) cells, Bezafibrate 10 mM at day 1, RNA at day 6 of fed-batch (FIG. 7A)", "result": "induced the transcription of PPAR-target genes"}]}]}
